Reference: patent US6534523B1, “Hepatitis C inhibitor tri-peptides” (Boehringer Ingelheim (Canada) Ltd., priority 1998, dated 2003)

Tests used:
[1] = target: T1, HCV NS3 protease type 1b / NS4A cofactor peptide (Hepatitis C virus genotype 1b, UniProt P26663); assay: Recombinant HCV NS3 protease/NS4A cofactor peptide radiometric assay (Example 37); format: biochemical, HCV genotype 1b
T1 construct: recombinant HCV NS3 protease (amino acid 1027 to 1206) was cloned in the pET11d bacterial expression vector; made in house; host or cells: E. coli BL21(DE3)pLysS
T1 sequence (P26663 1027-1206, other chains not shown): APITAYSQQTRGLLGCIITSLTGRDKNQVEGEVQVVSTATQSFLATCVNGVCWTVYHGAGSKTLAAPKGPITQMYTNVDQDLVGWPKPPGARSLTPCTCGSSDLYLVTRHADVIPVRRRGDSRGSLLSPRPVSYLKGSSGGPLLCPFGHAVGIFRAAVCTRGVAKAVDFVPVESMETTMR
Procedure: Recombinant HCV NS3 Protease/NS4A Cofactor Peptide Radiometric Assay
The enzyme was cloned, expressed and prepared according to the protocol described in Example 36. The enzyme was stored at −80° C., thawed on ice and diluted just prior to use in the assay buffer containing the NS4A cofactor peptide.
The substrate used for the NS3 protease/NS4A cofactor peptide radiometric assay, DDIVPC-SMSYTW, is cleaved between the cysteine and the serine residues by the enzyme. The sequence DDIVPC-SMSYTW corresponds to the NS5A/NS5B natural cleavage site in which the cysteine residue in P2 has been substituted for a proline. The peptide substrate DDIVPC-SMSYTW and the tracer biotin-DDIVPC-SMS[^125I-Y]TW are incubated with the recombinant NS3 protease and the NS4A peptide cofactor […] (molar ratio enzyme:cofactor 1:100) in the absence or presence of inhibitors. The separation of substrate from products is performed by adding avidin-coated agarose beads to the assay mixture followed by filtration. The amount of SMS[^125I-Y]TW product found in the filtrate allows for the calculation of the percentage of substrate conversion and of the percentage of inhibition.
Tris and Tris-HCl (UltraPure) were obtained from Gibco-BRL. […]
The filtrates were counted on a Packard TopCount instrument using a ^125I-liquid protocol for 1 minute.
The % inhibition was calculated with the following equation: […]

[2] = system: NS3 protease in Huh-7 cells co-transfected with NS3-NS4A-NS4B-NS5A-tTA and SEAP constructs; assay: NS3 protease surrogate cell-based assay (Example 39), SEAP reporter; details: Homo sapiens, SEAP activity, 24-h incubation, read-out: EC50 as determined by the assay of Example 39
Source text: NS3 Protease Cell-based Assay
This assay was done with Huh-7 cells, a human cell line derived from a hepatoma, co-transfected with 2 DNA constructs:
one expressing a polyprotein comprising the HCV non-structural proteins fused to tTA in the following order: NS3-NS4A-NS4B-NS5A-tTA (called NS3);
the other expressing the reporter protein, secreted alkaline phosphatase, under the control of tTA (called SEAP).
The polyprotein must be cleaved by the NS3 protease for the mature proteins to be released. Upon release of the mature proteins, it is believed that the viral proteins will form a complex at the membrane of the endoplasmic reticulum while tTA will migrate to the nucleus and transactivate the SEAP gene. Therefore, reduction of NS3 proteolytic activity should lead to reduction of mature tTA levels and concomitant decrease in SEAP activity.
To control for other effects of the compounds, a parallel transfection was done where a construct expressing tTA alone (called tTA) was co-transfected with the SEAP construct such that SEAP activity is independent of NS3 proteolytic activity. […] After a 24-h incubation period, an aliquot of the medium was drawn and the SEAP activity in this aliquot was measured with the Phospha-Light kit (Tropix). […]

For `C=C[C@@H]1C[C@]1(NC(=O)[C@@H]1C[C@@H](Oc2cc(-c3ccccc3)nc3cc(OC)ccc23)CN1C(=O)[C@@H](NC(=O)OC(C)(C)C)C(C)C)C(=O)O` [compound 601], the IC50 [1] was 0.05 µM and the EC50 [2] was 8.2 µM.
